We go through 13 compounds from US20130310611A1, “PROCESS FOR PRODUCTION OF PHENOLIC POLYMERIZABLE COMPOUND HAVING PHYSIOLOGICAL ACTIVITY” (UHA MIKAKUTO CO., LTD., priority 2010, published 2013).

Series [1] in a line: Solubility (physicochemical properties). The conditions noted are these: for Solubility: DMSO: solvent DMSO; for Solubility: Chloroform: solvent chloroform; for Solubility: Ethanol: solvent ethanol; for Solubility: Ethyl acetate: solvent ethyl acetate; for Solubility: Methanol: solvent methanol; for Solubility: Water: solvent water.
Series [2] deals with HL-60 cells (human promyelocytic leukemia cells). As to the kind of experiment: Cancer cell growth suppressing action using HL-60 cells (MTT method, Cell counting kit-8). The series is classed as cell-based. To be noted: 24 hours, 6.3-100 μM, read-out: Cell growth suppressing ability to HL-60 (IC50). On the procedure:
Next, in order to see the effect of the phenolic polymerizable compound to cancer cells, cancer cell growth suppressing action using HL-60 cells (human promyelocytic leukemia cells) was tested.
For culturing the HL-60 cells, an enriched culture medium “RPMI-1640” (manufactured by Sigma-Aldrich Japan) containing 4 mM glutamine (L-Glutamine, manufactured by Sigma-Aldrich Japan) and 10% FBS (Foetal Bovine Serum, manufactured by Biological Industries) was used. For the test, a 96-well plate for cell culture (manufactured by Corning Japan) was used, and the HL-60 cells whose number of cells was adjusted to be 5×10^5 cells/mL were seeded at 100 μL per well.
As samples, p-coumaric acid, ferulic acid, coffeic acid, and sinapic acid, and the UHA6005, the UHA6006, the UHA7004, the UHA7009, the UHA7010, the UHA7011, the UHA8015, the UHA9019, and the UHA9020 which were already purified were used. With respect to the preparation of the samples, each compound was dissolved in DMSO (Wako Pure Chemical Industries, Ltd.), and then adjusted in such a manner that the final concentration in the HL-60 cell culture solutions was 6.3 μM, 12.5 μM, 25 μM, 50 μM, and 100 μM. Then, the test was started.
The number of viable cells was quantified by an MTT method using a “Cell counting kit-8” (manufactured by DOJINDO LABORATORIES). 24 hours after starting the test, 10 μl of a Cell counting kit-8 solution was added to each well, and then sufficiently stirred. After a shading reaction for 1 hour, the absorbancy was measured at a measurement wavelength of 450 nm using a plate leader (Biorad Laboratories, Inc., “BIO-RAD Model 680”). Then, the cell viability was calculated based on the obtained data. The cell viability is a value obtained by setting the number of viable cells of the culture liquid to which only DMSO as a solvent was added to 100%, and then calculating the number of viable cells under the concentration of each compound as a relative value. From the relationship between the concentration of each compound and the cell viability, the concentration IC50 (50% inhibition concentration) at which the cell growth is suppressed by 50% was calculated.
(Tetrazolium dyes change colour on reduction, which living cells bring about.)

Series [3] deals with rat intestine derived lipase. As to the kind of experiment: Lipase inhibitory action test (Lipase kit S). Format: biochemical. The conditions noted are these: 30° C., 10 minutes reaction. On the procedure:
In order to see the inhibitory action to lipase of the phenolic polymerizable compound, an inhibitory action test using rat intestine derived lipase was performed.
As lipase, one obtained by suspending 100 mg of rat derived intestine acetone powder (manufactured by Sigma-Aldrich Japan) in 1 ml of 100 mM citric acid buffer (pH 6.0), stirred at 4° C. for 1 hour, centrifuging the same (at 15000 rpm for 45 minutes at 4° C.), and then diluting the supernatant by 1500 times was used as a lipase solution.
As samples, p-coumaric acid, ferulic acid, and coffeic acid and the UHA6005, the UHA6006, the UHA7009, the UHA7010, the UHA7011, the UHA8015, and the UHA9020 which were already purified were used. With respect to the preparation of the samples, each compound was dissolved in DMSO, and then prepared in such a manner as to achieve 0.1 mM, 0.5 mM, 1 mM, 2 mM, and 4 mM.
For measuring the activity, a “Lipase kit S” (Trade name, manufactured by Dainippon Pharmaceutical Co., Ltd.) was used. First, in accordance with a preparation method described in the catalog of the Lipase kit S, a color developing liquid was prepared. Reaction liquids in which 70 μl of the color developing liquid, 2 μl of an esterase inhibitor, 10 μl of the lipase solution, and 10 μl of the samples (Final concentration: 10 μM, 50 μM, 100 μM, 200 μM, 400 μM, and 1000 μM) were mixed were prepared, preincubated at 30° C. for 5 minutes, and then 8 μl of a substrate solution described in the catalog was added. Then, a reaction was started. After reacting for 10 minutes, 150 μl of a reaction stop liquid prepared in accordance with the preparation method described in the catalog of the Lipase kit S was added to stop the reaction. The resultant substance was subjected to a measurement of absorbancy at a wavelength of 415 nm. A reaction liquid to which only DMSO as the solvent of the sample was added was used as a positive control and one to which 10 μl of 100 mM citric acid buffer (pH 6.0) was added instead of the lipase solution was used as a negative control. From the relationship between the lipase inhibition rate calculated based on the data obtained therefrom and the concentration of each compound, the concentration IC50 at which the lipase activity is inhibited by 50% was calculated.

Series [4] has as its system SCC-4 cells (human oral cancer cells, ATCC). The series can be described thus: Cancer cell growth suppressing action using SCC-4 cells (MTT method, Cell counting kit-8). Format: cell-based. To be noted: 6.3-100 μM, read-out: Cell growth suppressing ability (IC50). On the procedure: Next, in order to see the effect of the phenolic polymerizable compound to oral cancer cells, cancer cell growth suppressing action using SCC-4 cells (human oral cancer cells, ATCC) was tested.
For culturing the SCC-4 cells, a DMEM/F-12 (1:1) culture medium (manufactured by GIBCO) containing 400 ng/mL hydrocortisone (manufactured by Sigma-Aldrich Japan), 1% antibiotic-antimycotic (manufactured by GIBCO), and 10% FBS (Foetal Bovine Serum, manufactured by ATCC) was used. For the test, a collagen I coat 96 well plate for cell culture (manufactured by Japan BD) was used, and SCC-4 cells whose number of cells was adjusted to be 5×10^5 cells/mL were seeded at 100 μL per well. The cells were cultured under the conditions of 37° C. and 5% CO2 for 24 hours, and were used for the test in a confluent state of 80% or higher.
As samples, p-coumaric acid and coffeic acid and the UHA6005, the UHA7009, the UHA7010, and the UHA7011 which were already purified were used. With respect to the preparation of the samples, each compound was dissolved in DMSO, and then prepared in such a manner as to achieve 0.63 mM, 1.25 mM, 2.5 mM, 5 mM, and 10 mM. The samples were added in such a manner that the final concentration in the SCC-4 cell culture solution was 6.3 μM, 12.5 μM, 25 μM, 50 μM, and 100 μM. Then, the test was started. A sample to which an equivalent amount of only DMSO as the solvent was added was used as a negative control.
The number of viable cells was quantified by an MTT method using a “Cell counting kit-8” in the same manner as in Example 18, and the concentration IC50 at which the cell growth is suppressed by 50% was calculated.

Read-outs that look alike come from different tables or passages of the source.

Usually IC50 stands for the concentration at which inhibition is half-maximal. As for `COc1cc(C(C)/C=C/c2ccc(O)cc2)ccc1O` (single isomer, unassigned) [UHA8015], in series [1], the “Solubility: DMSO” value is given as “Soluble”, the “Solubility: Chloroform” value is on record as “Soluble”, the “Solubility: Ethanol” value was “Soluble” and the “Solubility: Ethyl acetate” value is “Soluble”. Also, in series [1], the “Solubility: Methanol” value was “Soluble” and the “Solubility: Water” value is “Non-soluble”. Moreover, the IC50 in series [2] (Homo sapiens) came to 74.3 µM. For the same compound, the IC50 in series [3] is 350 µM.
Take `O=C(O)/C=C/c1ccc(O)c(O)c1` [Coffeic acid, reference compound]: the IC50 is more than 100 µM in series [2], more than 1000 µM in series [3] and more than 100 µM in series [4].
On to `COc1cc(/C=C/C(=O)O)ccc1O` [Ferulic acid, reference compound], for which the IC50 in series [2] (Homo sapiens) is more than 100 µM; in series [3], more than 1000 µM.
Consider `COc1cc(/C=C/C(=O)O)cc(OC)c1O` [Sinapic acid, reference compound], for which, in series [2] (Homo sapiens), the concentration for half-maximal inhibition (IC50) was more than 100 µM.
As to `CC(/C=C/c1ccc(O)c(O)c1)c1ccc(O)c(O)c1` (centres unmarked) [UHA6005], in series [1], the “Solubility: DMSO” value was “Soluble”, the “Solubility: Chloroform” value was “Soluble”, the “Solubility: Ethanol” value is on record as “Soluble” and the “Solubility: Ethyl acetate” value is “Soluble”. Further, in series [1], the “Solubility: Methanol” value is “Soluble” and the “Solubility: Water” value was “Poorly soluble”. The IC50 in series [2] (Homo sapiens) worked out at 43.7 µM. This compound returned an IC50 in series [3] of 253 µM. Moreover, in series [4] (Homo sapiens), the IC50 turned out to be 69.7 µM.
Take `CC(/C=C/c1cc(O)c(O)cc1C(C)c1ccc(O)c(O)c1)c1ccc(O)c(O)c1` (centres unmarked) [UHA6006]: in series [1], the “Solubility: DMSO” value is “Soluble”, the “Solubility: Chloroform” value was “Soluble”, the “Solubility: Ethanol” value is given as “Soluble” and the “Solubility: Ethyl acetate” value was “Soluble”. Besides, in series [1], the “Solubility: Methanol” value is recorded as “Soluble” and the “Solubility: Water” value is given as “Poorly soluble”. For the same compound, the concentration for half-maximal inhibition (IC50) in series [2] (Homo sapiens) was 42.4 µM. This compound returned an IC50 in series [3] of 188 µM.
With `COc1cc(/C=C/C(C)c2ccc(O)c(OC)c2)ccc1O` (centres unmarked) [UHA7004], in series [1], the “Solubility: DMSO” value is reported as “Soluble”, the “Solubility: Chloroform” value is “Soluble”, the “Solubility: Ethanol” value was “Soluble” and the “Solubility: Ethyl acetate” value was “Soluble”. Besides, in series [1], the “Solubility: Methanol” value is on record as “Soluble” and the “Solubility: Water” value is reported as “Poorly soluble”. Moreover, the IC50 in series [2] (Homo sapiens) turned out to be 17.6 µM.
Turning to `CC(/C=C/c1ccc(O)cc1)c1ccc(O)cc1` (centres unmarked) [UHA7009], in series [1], the “Solubility: DMSO” value is given as “Soluble”, the “Solubility: Chloroform” value is “Soluble”, the “Solubility: Ethanol” value is “Soluble” and the “Solubility: Ethyl acetate” value is given as “Soluble”. Further, in series [1], the “Solubility: Methanol” value was “Soluble” and the “Solubility: Water” value is reported as “Poorly soluble”. Also, the IC50 in series [2] (Homo sapiens) is 49.3 µM. The IC50 in series [3] was 438 µM. In addition, the half-inhibitory concentration (IC50) in series [4] (Homo sapiens) is 72.9 µM.
With `CC(CC(/C=C/c1ccc(O)cc1)c1ccc(O)cc1)c1ccc(O)cc1` (centres unmarked) [UHA7010], in series [1], the “Solubility: DMSO” value is on record as “Soluble”, the “Solubility: Chloroform” value is given as “Soluble”, the “Solubility: Ethanol” value is recorded as “Soluble” and the “Solubility: Ethyl acetate” value is “Soluble”. For the same compound, in series [1], the “Solubility: Methanol” value is “Soluble” and the “Solubility: Water” value is on record as “Poorly soluble”. The half-maximal inhibitory concentration (IC50) in series [2] (Homo sapiens) was determined as 35.3 µM. This compound also displayed an IC50 in series [3] of 60.4 µM. The IC50 in series [4] (Homo sapiens) stood at 61.1 µM.
With `CC(/C=C/c1ccc(O)c(C(C)c2ccc(O)cc2)c1)c1ccc(O)cc1` (centres unmarked) [UHA7011], in series [1], the “Solubility: DMSO” value is “Soluble”, the “Solubility: Chloroform” value is “Soluble”, the “Solubility: Ethanol” value is “Soluble” and the “Solubility: Ethyl acetate” value is given as “Soluble”. For the same compound, in series [1], the “Solubility: Methanol” value is recorded as “Soluble” and the “Solubility: Water” value is “Poorly soluble”. In series [2] (Homo sapiens), the IC50 is 35.4 µM. In series [3], the half-inhibitory concentration (IC50) came out at 197 µM. In addition, the IC50 in series [4] (Homo sapiens) came out at 40.8 µM.
Regarding `COc1cc(/C=C/C(C)c2cc(OC)c(O)c(OC)c2)cc(OC)c1O` (centres unmarked) [UHA9019], in series [1], the “Solubility: DMSO” value is given as “Soluble”, the “Solubility: Chloroform” value is “Soluble”, the “Solubility: Ethanol” value is given as “Soluble” and the “Solubility: Ethyl acetate” value is “Soluble”. Besides, in series [1], the “Solubility: Methanol” value is reported as “Soluble” and the “Solubility: Water” value was “Poor soluble”. Further, the IC50 in series [2] (Homo sapiens) is 66.2 µM.
On to `COc1cc(/C=C/C(C)c2ccc(O)c(O)c2)ccc1O` (centres unmarked) [UHA9020], for which, in series [1], the “Solubility: DMSO” value is given as “Soluble”, the “Solubility: Chloroform” value is recorded as “Soluble”, the “Solubility: Ethanol” value is recorded as “Soluble” and the “Solubility: Ethyl acetate” value is “Soluble”. In series [1], the “Solubility: Methanol” value is given as “Soluble” and the “Solubility: Water” value is reported as “Non-soluble”. In addition, the IC50 in series [2] (Homo sapiens) stood at 38.5 µM. This compound also registered an IC50 in series [3] of 118 µM.
With `O=C(O)/C=C/c1ccc(O)cc1` [p-coumaric acid, reference compound], the IC50 was more than 100 µM in series [2] (Homo sapiens), more than 1000 µM in series [3] and more than 100 µM in series [4] (Homo sapiens).
